Results reported in PMC10141604, “Small-Molecule Inhibition of Androgen Receptor Dimerization as a Strategy against Prostate Cancer” (ACS Central Science, 2023).

Key:
MR = molecular target: T1, MR (Homo sapiens, UniProt P08235); assay: Luciferase reporter assay for MR (HEK293T cells); type: cell-based; conditions: 10 μM, 5 nM aldosterone
T1 construct: host or cells: HEK293T
T1 sequence (P08235 1-984): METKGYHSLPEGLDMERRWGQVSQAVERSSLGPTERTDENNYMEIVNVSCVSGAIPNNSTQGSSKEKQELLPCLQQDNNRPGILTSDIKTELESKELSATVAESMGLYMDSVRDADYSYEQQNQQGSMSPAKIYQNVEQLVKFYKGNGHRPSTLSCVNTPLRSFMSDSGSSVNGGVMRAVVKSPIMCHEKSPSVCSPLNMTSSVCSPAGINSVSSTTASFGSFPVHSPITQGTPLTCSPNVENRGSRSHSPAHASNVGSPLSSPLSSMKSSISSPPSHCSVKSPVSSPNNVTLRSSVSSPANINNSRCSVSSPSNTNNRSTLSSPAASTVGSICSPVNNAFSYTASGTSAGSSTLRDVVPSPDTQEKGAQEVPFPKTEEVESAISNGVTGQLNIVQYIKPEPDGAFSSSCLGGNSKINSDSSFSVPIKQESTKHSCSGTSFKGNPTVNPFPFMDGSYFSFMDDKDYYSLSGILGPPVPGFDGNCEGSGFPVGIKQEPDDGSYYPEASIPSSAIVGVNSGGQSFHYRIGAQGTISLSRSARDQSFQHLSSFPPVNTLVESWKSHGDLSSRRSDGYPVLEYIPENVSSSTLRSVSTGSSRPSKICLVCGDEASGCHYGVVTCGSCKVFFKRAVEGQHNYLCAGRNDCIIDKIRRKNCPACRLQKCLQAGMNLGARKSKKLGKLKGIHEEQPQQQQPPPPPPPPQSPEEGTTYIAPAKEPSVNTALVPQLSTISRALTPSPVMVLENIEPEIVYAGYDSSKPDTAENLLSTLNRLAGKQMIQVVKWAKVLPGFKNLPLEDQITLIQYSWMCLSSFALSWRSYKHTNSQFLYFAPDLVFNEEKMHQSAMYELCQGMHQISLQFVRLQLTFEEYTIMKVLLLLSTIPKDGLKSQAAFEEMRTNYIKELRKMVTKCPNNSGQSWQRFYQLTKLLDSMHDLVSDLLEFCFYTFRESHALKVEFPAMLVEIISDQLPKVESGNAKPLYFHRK
Description: Luciferase Reporter Assays for PR, GR, and MR
PC3, HeLa, and HEK293T cells were cultured using 5% CSS RPMI-1640, 5% CSS RPMI-1640 and 10% FBS DMEM media in 96-well plates for 24 h, respectively. For PR induction, PC3 (1 × 10^4 cells/well) were transfected with 50 ng pcDNA3-PRB (#89130, Addgene), 24 ng pGL4.36[luc2P MMTV Hygro] (Promega) and 5 ng Renilla using HG-TransGeneTM transfection reagent (#TG-10012, Genomeditech) for 4 h. For GR induction, Hela (1 × 10^4 cells/well) were transfected with 71 ng pCMV -GR11 (#89105, Addgene), 24 ng pGL4.36[luc2P MMTV Hygro] (Promega) and 5 ng Renilla using lip3000 transfection reagent (#L3000075, Thermofisher) for 24 h. For MR induction, HEK293T (1 × 10^4 cells/well) were transfected with 71 ng pCMV-MR gifted by Liu et al. 28, 24 ng of pGL4.36[luc2P MMTV Hygro] (Promega) and 5 ng Renilla using lip3000 transfec tion reagent for 24 h. For the antagonistic models, 10 nM /well progesterone for PC3 cells , 1 nM/well dexamethasone for HeLa, and 5 nM/well aldosterone for HEK293T cells were added to stimulate the cells. Meanwhile, each cell line was treated with a series concentration of compounds (0.4, 2, and 10 μM). For the agonistic models, the cells were directly treated with the compounds without any hormones. Endogenous hormones progesterone, dexamethasone, and aldosterone were considered as agonists for PR, GR, and MR, respectively. The luciferase activities were assessed using the Dual-Glo Luciferase system (#E1910, Promega). […]

22RV1 = assay: Clonogenic (colony forming) assay, 22RV1; type: cell-based; conditions: 2 and 20 μM, 16-18 days
Description: 1.5× 10^3 cells/well of LNCaP or 22RV1 were seeded into a 6-well plate. After 1 day
incubation, the medium of each well was removed and washed thrice using PBS. […]

FL-AR^F876L = FL-AR^F876L (Homo sapiens, UniProt P10275, F877L); assay: Dual-luciferase reporter assay for FL-AR F876L in PC3 cells
Sequence of FL-AR^F876L (P10275 whole entry F877L): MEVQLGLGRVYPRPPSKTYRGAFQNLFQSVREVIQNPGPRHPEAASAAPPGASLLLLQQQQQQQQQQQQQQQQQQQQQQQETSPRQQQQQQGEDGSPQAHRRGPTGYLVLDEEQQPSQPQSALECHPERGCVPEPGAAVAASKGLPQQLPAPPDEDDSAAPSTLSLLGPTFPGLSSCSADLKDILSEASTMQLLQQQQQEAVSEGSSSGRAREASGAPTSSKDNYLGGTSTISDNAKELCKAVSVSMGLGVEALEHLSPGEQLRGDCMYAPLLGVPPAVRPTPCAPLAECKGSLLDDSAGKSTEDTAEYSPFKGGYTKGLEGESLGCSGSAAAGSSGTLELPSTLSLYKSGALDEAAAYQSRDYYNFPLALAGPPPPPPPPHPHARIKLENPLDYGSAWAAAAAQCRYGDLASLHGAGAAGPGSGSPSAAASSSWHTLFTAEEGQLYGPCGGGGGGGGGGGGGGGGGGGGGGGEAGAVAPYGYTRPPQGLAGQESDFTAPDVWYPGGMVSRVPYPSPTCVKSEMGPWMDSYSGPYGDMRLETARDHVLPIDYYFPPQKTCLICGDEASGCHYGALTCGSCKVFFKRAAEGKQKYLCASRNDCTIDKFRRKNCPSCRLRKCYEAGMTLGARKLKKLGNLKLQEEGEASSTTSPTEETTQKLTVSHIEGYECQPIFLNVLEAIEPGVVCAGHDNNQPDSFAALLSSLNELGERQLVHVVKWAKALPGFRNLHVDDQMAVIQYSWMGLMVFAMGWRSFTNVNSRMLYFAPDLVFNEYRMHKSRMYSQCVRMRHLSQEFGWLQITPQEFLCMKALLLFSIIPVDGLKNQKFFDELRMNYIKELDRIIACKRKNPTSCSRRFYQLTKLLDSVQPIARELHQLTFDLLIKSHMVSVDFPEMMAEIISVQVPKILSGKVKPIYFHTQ
Description: Luciferase Reporter Assays for FL -ARF876L and FL-ARF876L/T877A
constructed on the basis of the human full length wild type AR plasmid pCMV -hAR
transfected with 70 ng/well of FL -AR plasmid together with 24 ng of ARR2PB -Luc, and 5 ng of Renilla. After 1 day incubation at 37 °C , the antagonistic models were employed
After another 24 h incubation, the luciferase activities were determined by the Dual -Glo Luciferase system (#E1910, Promega) according to the

SMILES | MR antagonistic activity (MR) | colony formation of 22RV1 (22RV1) | IC50 (FL-AR^F876L) [nM]
CC(=O)Cc1nsc(NC(=O)c2cc(-c3cccc(C(F)(F)F)c3)oc2C)n1 [Compound M17-B15] | not observed | not | 160
CNC(=O)c1ccc(N2C(=S)N(c3ccc(C#N)c(C(F)(F)F)c3)C(=O)C2(C)C)cc1F [Enz, enzalutamide, reference compound] | not observed | not | 
